Structures can show the parent of a compound that is named as a salt. Where two headings read alike, the source gives them in different places.
Assays:
in vitro = settings: African green monkey, CC50 (μM); for CC50: Vero E6 cells
SARS-CoV-2 = test: Quantification of SARS-CoV-2 via antibody staining (viral NP protein) in Vero E6 cells; assay type: cell-based; settings: for IC50: viral titer by antinucleocapsid antibody
[1] = system: SARS-CoV-2 (hCoV-19/Taiwan/4/2020); test: microbe, parasite or virus in culture; assay type: cell-based; settings: for block of viral infection in the cell-based assay (α-glucosidase inhibitors): tested conc. 100 μM (Fig. S4)
[2] = target: Papain-like protease (nsp3) of SARS-CoV-2 (Severe acute respiratory syndrome coronavirus 2, UniProt P0DTD1); test: biochemical; assay type: biochemical; settings: 100 uM, FRET-based enzymatic assay, 3 independent experiments, N.I. = no inhibition; for inhibition at 100 µM: read-out: Inhibition % at 100 uM of compounds, Papain-like protease (nsp3)
[3] = 100 PFU of SARS-CoV-2 (multiplicity of infection 0.025) in Vero E6 cells
[4] = Severe acute respiratory syndrome coronavirus 2, Vero C1008, 100 PFU of SARS-CoV-2 (multiplicity of infection 0.025) in Vero E6 cells
[5] = Severe acute respiratory syndrome coronavirus 2, Vero C1008, minimal dose that showed antiinfective effect after virus challenge, incubation 72 h (D3), Vero E6, read-out: CPE (μM) D3
[6] = minimal dose that showed antiinfective effect after virus challenge, incubation 120 h (D5), Vero E6, N.I. = no inhibition, dash = cytotoxicity was observed
[7] = Severe acute respiratory syndrome coronavirus 2, Vero C1008, 72 h, read-out: CPE (μM) D3
[8] = Severe acute respiratory syndrome coronavirus 2, Vero C1008, 120 h, […], N.I. = no inhibition, dash = cytotoxicity was observed, read-out: CPE (μM) D5
[9] = Vero E6, concentrations used in the screen (10, 3.3 and 1 μM)

CC1=C(C(=O)OC(C)C)C(c2cccc([N+](=O)[O-])c2)C(C(=O)OC2CN(C(c3ccccc3)c3ccccc3)C2)=C(N)N1 (centres unmarked) [Azelnidipine 10, Azelnidipine]
CC50 at 24 h (in vitro): 12.9 µM
IC50 (SARS-CoV-2; [3]): 5.3 µM
IC50 (SARS-CoV-2; [4]): 5.29 µM
minimal effective concentration [1, 5]: 5 µM
CPE (μM) D5 [1, 6]: N.I.
Inhibition % at 100 uM of compounds, Papain-like protease (nsp3) [2]: N.I.

CC(C)(C)NC(=O)N[C@H](C(=O)N1C[C@H]2[C@@H]([C@H]1C(=O)NC(CC1CCC1)C(=O)C(N)=O)C2(C)C)C(C)(C)C (some centres unmarked) [Boceprevir 2, Boceprevir]
IC50 (SARS-CoV-2; [3]): 50.1 µM
IC50 (SARS-CoV-2; [4]): > 50 µM
minimal effective concentration [1, 5]: 10 µM
minimal effective concentration ([1]; Severe acute respiratory syndrome coronavirus 2, Vero C1008, minimal dose that showed antiinfective effect after virus challenge, incubation 120 h (D5), Vero E6, N.I. = no inhibition, dash = cytotoxicity was observed, read-out: CPE (μM) D5): 10 µM
Inhibition % at 100 uM of compounds, Papain-like protease (nsp3) [2]: N.I.

COc1ccc2cc1Oc1ccc(cc1)C[C@H]1c3c(cc4c(c3Oc3cc5c(cc3OC)CCN(C)[C@@H]5C2)OCO4)CCN1C [Cepharanthine 4, Cepharanthine]
CC50 at 24 h (in vitro): 12.9 µM
IC50 (SARS-CoV-2; [4]): 2.8 µM
minimal effective concentration [1, 7]: 3.75 µM
minimal effective concentration [1, 8]: 7.5 µM
inhibition at 100 µM [2]: 31.9%

CCCCc1oc2ccc(NS(C)(=O)=O)cc2c1C(=O)c1ccc(OCCCN(CCCC)CCCC)cc1 [Dronedarone 12, Dronedarone]
CC50 at 24 h (in vitro): 12.1 µM
IC50 (SARS-CoV-2; [3]): 4.5 µM
IC50 (SARS-CoV-2; [4]): 4.51 µM
minimal effective concentration [1, 5]: 7.5 µM
CPE (μM) D5 [1, 6]: N.I.
Inhibition % at 100 uM of compounds, Papain-like protease (nsp3) [2]: significant inhibition
inhibition at 100 µM [2]: 78.6%

CC[C@H]1CN2CCc3cc(OC)c(OC)cc3[C@@H]2C[C@@H]1C[C@H]1NCCc2cc(OC)c(OC)cc21 [Emetine 5, Emetine]
CC50 (in vitro): > 10 µM
IC50 (SARS-CoV-2; [3]): 0.0004 µM
IC50 (SARS-CoV-2; [4]): 0.000397 µM
minimal effective concentration [1, 7]: 5 µM
minimal effective concentration [1, 8]: 10 µM

CC(=O)N[C@@H](C)C(=O)N[C@H](C(=O)N[C@@H](Cc1ccccc1)[C@@H](O)[C@H](O)[C@H](Cc1ccccc1)NC(=O)[C@@H](NC(=O)[C@H](C)NC(C)=O)C(C)C)C(C)C [JJS-0309]
inhibition against SARS-CoV-2 in the cell-based screen [1]: did not show any inhibition

Cc1cccc(C)c1OCC(=O)N[C@@H](Cc1ccccc1)[C@@H](O)C[C@H](Cc1ccccc1)NC(=O)[C@H](C(C)C)N1CCCNC1=O [Lopinavir]
inhibition against SARS-CoV-2 in the cell-based screen [1, 9]: none of these showed inhibition

CO[C@@H]1[C@@H](OC)[C@H](C)[C@@](O)(CC(=O)O)O[C@H]1[C@H](C)[C@H]1O[C@@]2(CC[C@@](C)([C@H]3CC[C@@](C)([C@@H]4O[C@@H]([C@H]5O[C@](C)(O)[C@H](C)C[C@@H]5C)C[C@@H]4O[C@@H]4C[C@H](OC)[C@@H](OC)[C@H](C)O4)O3)O2)C[C@H](O)[C@H]1C [Maduramicin 15, Maduramicin]
CC50 (in vitro): 6.39 µM
IC50 (SARS-CoV-2; [3]): 1.3 µM
IC50 (SARS-CoV-2; [4]): 1.32 µM
selectivity index (antiviral effect vs cytotoxicity) (SARS-CoV-2; Vero E6, CC50 vs IC50): no selectivity
minimal effective concentration [1, 7]: 0.039 µM
minimal effective concentration [1, 8]: 0.117 µM
Inhibition % at 100 uM of compounds, Papain-like protease (nsp3) [2]: N.I.

CN1C[C@H](O)[C@@H](O)[C@H](O)[C@H]1CO [N-methyl-1-deoxynojirimycin]
block of viral infection in the cell-based assay (α-glucosidase inhibitors) ([1]; Vero E6): none was able to efficiently block the viral infection

CC(C)c1nc(CN(C)C(=O)N[C@H](C(=O)N[C@@H](Cc2ccccc2)C[C@H](O)[C@H](Cc2ccccc2)NC(=O)OCc2cncs2)C(C)C)cs1 [Ritonavir]
inhibition against SARS-CoV-2 in the cell-based screen [1, 9]: none of these showed inhibition

CCC[C@H](NC(=O)[C@@H]1[C@H]2CCC[C@H]2CN1C(=O)[C@@H](NC(=O)[C@@H](NC(=O)c1cnccn1)C1CCCCC1)C(C)(C)C)C(=O)C(=O)NC1CC1 [Telaprevir]
inhibition against SARS-CoV-2 in the cell-based screen [1, 9]: none of these showed inhibition

Nc1nc(NC2CC2)c2ncn([C@H]3C=C[C@@H](CO)C3)c2n1 [abacavir sulfate]
inhibition against SARS-CoV-2 in the cell-based screen [1, 9]: no active compound was identified

C[C@H]1O[C@H](O[C@H]2[C@H](O)[C@@H](O)[C@@H](O[C@H]3[C@H](O)[C@@H](O)C(O)O[C@@H]3CO)O[C@@H]2CO)[C@H](O)[C@@H](O)[C@@H]1N[C@H]1C=C(CO)[C@@H](O)[C@H](O)[C@H]1O (some centres unmarked) [acarbose]
block of viral infection in the cell-based assay (α-glucosidase inhibitors) ([1]; Vero E6): none was able to efficiently block the viral infection

Nc1nc2c(ncn2COCCO)c(=O)[nH]1 [acyclovir]
inhibition against SARS-CoV-2 in the cell-based screen [1, 9]: no active compound was identified

CC(C)(C)C(=O)OCOP(=O)(COCCn1cnc2c(N)ncnc21)OCOC(=O)C(C)(C)C [adefovir dipivoxyl]
inhibition against SARS-CoV-2 in the cell-based screen [1, 9]: no active compound was identified

CC(C)CN(C[C@@H](O)[C@H](Cc1ccccc1)NC(=O)O[C@H]1CCOC1)S(=O)(=O)c1ccc(N)cc1 [amprenavir]
inhibition against SARS-CoV-2 in the cell-based screen [1, 9]: none of these showed inhibition

COC(=O)N[C@H](C(=O)N[C@@H](Cc1ccccc1)[C@@H](O)CN(Cc1ccc(-c2ccccn2)cc1)NC(=O)[C@@H](NC(=O)OC)C(C)(C)C)C(C)(C)C [atazanavir]
inhibition against SARS-CoV-2 in the cell-based screen [1, 9]: none of these showed inhibition

Nc1ccn(C[C@@H](CO)OCP(=O)(O)O)c(=O)n1 [cidofovir]
inhibition against SARS-CoV-2 in the cell-based screen [1, 9]: no active compound was identified

COC(=O)N[C@H](C(=O)N1CCC[C@H]1c1nc(-c2ccc(-c3ccc(-c4c[nH]c([C@@H]5CCCN5C(=O)[C@@H](NC(=O)OC)C(C)C)n4)cc3)cc2)c[nH]1)C(C)C [daclatasvir]
inhibition against SARS-CoV-2 in the cell-based screen [1, 9]: none of these showed inhibition

CC(C)(C)OC(=O)N[C@H]1CCCCC/C=C\[C@@H]2C[C@@]2(C(=O)NS(=O)(=O)C2CC2)NC(=O)[C@@H]2C[C@@H](OC(=O)N3Cc4cccc(F)c4C3)CN2C1=O [danoprevir]
inhibition against SARS-CoV-2 in the cell-based screen [1, 9]: none of these showed inhibition

CC(C)CN(C[C@@H](O)[C@H](Cc1ccccc1)NC(=O)O[C@H]1CO[C@H]2OCC[C@H]21)S(=O)(=O)c1ccc(N)cc1 [darunavir]
inhibition against SARS-CoV-2 in the cell-based screen [1, 9]: none of these showed inhibition

CC[C@H](CC[C@@H](C)[C@H]1CC[C@H]2[C@@H]3CC=C4C[C@@H](O[C@@H]5O[C@H](CO)[C@@H](O)[C@H](O)[C@H]5O)CC[C@]4(C)[C@H]3CC[C@]12C)C(C)C [daucosterol]
block of viral infection in the cell-based assay (α-glucosidase inhibitors) ([1]; Vero E6): none was able to efficiently block the viral infection

CC(C)Nc1cccnc1N1CCN(C(=O)c2cc3cc(NS(C)(=O)=O)ccc3[nH]2)CC1 [delavirdine]
inhibition against SARS-CoV-2 in the cell-based screen [1, 9]: no active compound was identified

O=C1Nc2ccc(Cl)cc2[C@@](C#CC2CC2)(C(F)(F)F)O1 [efavirenz]
inhibition against SARS-CoV-2 in the cell-based screen [1, 9]: no active compound was identified

C=C1[C@H](CO)[C@@H](O)C[C@@H]1n1cnc2c(=O)[nH]c(N)nc21 [entecavir]
inhibition against SARS-CoV-2 in the cell-based screen [1, 9]: no active compound was identified

CC(=O)OCC(CCn1cnc2cnc(N)nc21)COC(C)=O [famciclovir]
inhibition against SARS-CoV-2 in the cell-based screen [1, 9]: no active compound was identified

CC(C)(C)NC(=O)[C@@H]1CN(Cc2cccnc2)CCN1C[C@@H](O)C[C@@H](Cc1ccccc1)C(=O)N[C@H]1c2ccccc2C[C@H]1O [indinavir sulfate]
inhibition against SARS-CoV-2 in the cell-based screen [1, 9]: none of these showed inhibition

OCCN1C[C@H](O)[C@@H](O)[C@H](O)[C@H]1CO [miglitol]
block of viral infection in the cell-based assay (α-glucosidase inhibitors) ([1]; Vero E6): none was able to efficiently block the viral infection

Cc1ccnc2c1NC(=O)c1cccnc1N2C1CC1 [nevirapine]
inhibition against SARS-CoV-2 in the cell-based screen [1, 9]: no active compound was identified

Nc1nc2c(ncn2CCC(CO)CO)c(=O)[nH]1 [penciclovir]
inhibition against SARS-CoV-2 in the cell-based screen [1, 9]: no active compound was identified

NC(=O)c1ncn([C@@H]2O[C@H](CO)[C@@H](O)[C@H]2O)n1 [ribavirin]
inhibition against SARS-CoV-2 in the cell-based screen [1, 9]: no active compound was identified

CC(C)(C)NC(=O)[C@@H]1C[C@@H]2CCCC[C@@H]2CN1C[C@@H](O)[C@H](Cc1ccccc1)NC(=O)[C@H](CC(N)=O)NC(=O)c1ccc2ccccc2n1 [saquinavir mesylate]
inhibition against SARS-CoV-2 in the cell-based screen [1, 9]: none of these showed inhibition

Cc1cn([C@@H]2C[C@@H](O)[C@H](CO)O2)c(=O)[nH]c1=O [telbivudine]
inhibition against SARS-CoV-2 in the cell-based screen [1, 9]: no active compound was identified

CC(C)OC(=O)OCOP(=O)(CO[C@H](C)Cn1cnc2c(N)ncnc21)OCOC(=O)OC(C)C [tenofovir disoproxil fumarate]
inhibition against SARS-CoV-2 in the cell-based screen [1, 9]: no active compound was identified

OCC(CO)N[C@H]1C[C@](O)(CO)[C@@H](O)[C@H](O)[C@H]1O [voglibose]
block of viral infection in the cell-based assay (α-glucosidase inhibitors) ([1]; Vero E6): none was able to efficiently block the viral infection

Nc1ccn([C@H]2CC[C@@H](CO)O2)c(=O)n1 [zalcitabine]
inhibition against SARS-CoV-2 in the cell-based screen [1, 9]: no active compound was identified

Reference: article PMC7865145, “Identification of existing pharmaceuticals and herbal medicines as inhibitors of SARS-CoV-2 infection” (Proceedings of the National Academy of Sciences of the …, 2021)
